Test results reported in patent US20250345446A1 (Draupnir Bio ApS, priority 2022, published 2025).
Residues, ends and D or L forms follow the SMILES beside them. No end group written: not given here. *: point of attachment. Biotin = O=C1N[C@H]2[C@H](CS[C@H]2CCCCC(=O)*)N1

biological target: T1, soluble ectodomain of sortilin-6his (Homo sapiens, UniProt Q99523, V650M); assay: MST binding to soluble ectodomain of sortilin-6his; details: Table 1; biotin-linker-peptide bifunctional compounds; MST; read-out: KD score, binding to sortilin (Kd)
T1 construct: the soluble ectodomain of sortilin-6his is measured by microscale thermophoresis (MST)
Description: At this point the plate was sealed with adhesive strip and placed on an Eppendorf thermomixer to shake at 600 rpm for 3 min before spinning on a Fisherbrand plate-spinner for 15 seconds and further incubation 1 hrs at 19° C. MST was measured on a Monolith NT. Automated (Nanotemper) in standard-treated capillaries at 5% LED-power and high MST-power. Dose-response was extracted from the raw thermographs at 20 sec hot-time and the dissociation constant was estimated by sigmoidal curve fitting in MO. Affinity analysis program (Nanotemper). All experiments were run in duplicates.

Molecule | Kd
CC(C)C[C@H](NC(=O)[C@H](CC(C)C)NC(=O)[C@H](CCC(N)=O)NC(=O)[C@H](CCCNC(=N)N)NC(=O)CNC(=O)CNC(=O)CNC(=O)CNC(=O)[C@H](CO)NC(=O)CNC(=O)CNC(=O)CCCC[C@@H]1SC[C@@H]2NC(=O)N[C@@H]21)C(=O)O [compound 150] (Biotin-GGSGGGGRQLL-OH) | < 100 nM
CC(C)C[C@H](NC(=O)[C@H](CC(C)C)NC(=O)[C@H](CCC(N)=O)NC(=O)[C@H](CCCNC(=N)N)NC(=O)CCCC[C@@H]1SC[C@@H]2NC(=O)N[C@@H]21)C(=O)O [compound 154] (Biotin-RQLL-OH) | < 100 nM

same assay, conditions: Table 3; monofunctional peptides; MST; read-out: KD score, binding to sortilin (Kd)

Molecule | Kd
CC(C)C[C@H](NC(=O)[C@H](Cc1ccccc1)NC(=O)[C@H](CCC(N)=O)NC(=O)[C@@H](N)CCCNC(=N)N)C(=O)O [compound 38] (H-RQFL-OH) | 250 to 2500 nM
CC(C)C[C@H](NC(=O)[C@H](CC(C)C)NC(=O)[C@H](Cc1ccc(O)cc1)NC(=O)[C@@H](N)CCCNC(=N)N)C(=O)O [compound 27, RYLL-OH] (H-RYLL-OH) | 25 to 250 nM
H-WSGPIGVSWGLRAAAAGFQLL-OH [compound 179] | < 25 nM
REAPRWDAPLRDPALRYLL-OH [compound 59] | < 25 nM
PIPLV [compound 197, PIPLV-OH] | > 2500 nM
CC[C@H](C)[C@H](NC(=O)[C@H](Cc1ccc(O)cc1)NC(=O)[C@@H](N)CCCNC(=N)N)C(=O)N[C@@H](CC(C)C)C(=O)O [compound 32] (H-RYIL-OH) | 250 to 2500 nM
CC(C)C[C@H](NC(=O)[C@H](CC(C)C)NC(=O)[C@H](Cc1ccc(O)cc1)NC(=O)[C@@H](N)Cc1ccccc1)C(=O)O [compound 28, FYLL-OH] (H-FYLL-OH) | 25 to 250 nM
LYENK-NH2 [compound 65] | > 2500 nM
CC(C)C[C@H](NC(=O)[C@H](CC(C)C)NC(=O)[C@H](CCC(N)=O)NC(=O)[C@@H](N)CCCNC(=N)N)C(=O)O [compound 22, RQLL-OH] (H-RQLL-OH) | 25 to 250 nM
CSCC[C@H](NC(=O)[C@H](CC(C)C)NC(=O)[C@H](CCC(N)=O)NC(=O)[C@@H](N)CCCNC(=N)N)C(=O)O [compound 165] (H-RQLM-OH) | > 2500 nM

same assay, conditions: Table 4; small molecule bifunctional compounds; MST; read-out: KD score, binding to sortilin (Kd)

Molecule | Kd
C[C@@H]1CN(c2ncc(-c3ccc4c(n3)N(Cc3cccnc3C#N)C(C)(C)C4=O)cn2)CCN1C(=O)COCCNC(=O)COc1cccc(Oc2ccc(C(=O)N[C@@H](CCC(C)(C)C)C(=O)O)cn2)c1 [BF064, (S)-2-(6-(3-(2-((8-(2-((R)-4-(5-(1-((2-cyanopyridin-3-yl)methyl)-2,2-dimethyl-3-oxo-2,3-dihydro-1H-pyrrolo[2,3-b]pyridin-6-yl)pyrimidin-2-yl)-2-methylpiperazin-1-yl)-2-oxoethoxy)methyl)amino)-2-oxoethoxy)phenoxy)nicotinamido)-5,5-dimethylhexanoic acid] | 1 to 10 nM
CC(C)(C)CC[C@H](NC(=O)c1ccc(Oc2cccc(C(=O)NCCOCCOCCNc3ccc([N+](=O)[O-])cc3[N+](=O)[O-])c2)nc1)C(=O)O [BF001, (2S)-2-[[6-[3-[2-[2-[2-(2,4-dinitroanilino)ethoxy]ethoxy]ethylcarbamoyl]phenoxy]pyridine-3-carbonyl]amino]-5,5-dimethyl-hexanoic acid] | 1 to 10 nM
C[C@@H]1CN(c2ncc(-c3ccc4c(n3)N(Cc3cccnc3C#N)C(C)(C)C4=O)cn2)CCN1C(=O)Cc1cn(CCCCCCCCCn2cc(-c3cccc(Oc4ccc(C(=O)N[C@@H](CCC(C)(C)C)C(=O)O)cn4)c3)nn2)nn1 [BF104, (2S)-2-[[6-[3-[1-[9-[4-[2-[(2R)-4-[5-[1-[(2-cyano-3-pyridyl)methyl]-2,2-dimethyl-3-oxo-pyrrolo[2,3-b]pyridin-6-yl]pyrimidin-2-yl]-2-methyl-piperazin-1-yl]-2-oxo-ethyl]triazol-1-yl]nonyl]triazol-4-yl]phenoxy]pyridine-3-carbonyl]amino]-5,5-dimethyl-hexanoic acid] | < 1 nM
C[C@@H]1CN(c2ncc(-c3ccc4c(n3)N(Cc3cccnc3C#N)C(C)(C)C4=O)cn2)CCN1C(=O)COCCNC(=O)c1cccc(Oc2ccc(C(=O)N[C@@H](CCC(C)(C)C)C(=O)O)cn2)c1 [BF058, (S)-2-(6-(3-((2-(2-((R)-4-(5-(1-((2-cyanopyridin-3-yl)methyl)-2,2-dimethyl-3-oxo-2,3-dihydro-1H-pyrrolo[2,3-b]pyridin-6-yl)pyrimidin-2-yl)-2-methylpiperazin-1-yl)-2-oxoethoxy)ethyl)carbamoyl)phenoxy)nicotinamido)-5,5-dimethyl hexanoic acid] | 1 to 10 nM
Cc1nc2cc(F)c(-c3cnc(OCCOCCn4cc(COCC(=O)N5CC(OCCNC(=O)COc6cccc(Oc7ccc(C(=O)N[C@@H](CCC(C)(C)C)C(=O)O)cn7)c6)C5)nn4)nc3)nc2c(N[C@H](C)c2cc(C#N)ccc2F)c1Cl [BF088, (2S)-2-[[6-[3-[2-[2-[1-[2-[[1-[2-[2-[5-[7-chloro-8-[[(1R)-1-(5-cyano-2-fluoro-phenyl)ethyl]amino]-3-fluoro-6-methyl-1,5-naphthyridin-2-yl]pyrimidin-2-yl]oxyethoxy]ethyl]triazol-4-yl]methoxy]acetyl]azetidin-3-yl]oxyethylamino]-2-oxo-ethoxy]phenoxy]pyridine-3-carbonyl]amino]-5,5-dimethyl-hexanoic acid] | 1 to 10 nM
CC(C)(C)CC[C@H](NC(=O)c1ccc(Oc2cccc(C(=O)NCCOCCOCCOCCNc3ccc([N+](=O)[O-])cc3[N+](=O)[O-])c2)nc1)C(=O)O [BF002, (2S)-2-[[6-[3-[2-[2-[2-[2-(2,4-dinitroanilino)ethoxy]ethoxy]ethoxy]ethyl-carbamoyl]phenoxy]pyridine-3-carbonyl]amino]-5,5-dimethyl-hexanoic acid] | 1 to 10 nM
CC(C)(C)CC[C@H](NC(=O)c1ccc(Oc2cccc(C(=O)NCCOCCOCCOCCOCCOCCOCc3ccc(-c4cccc5ccncc45)c(OCCc4ccc(-c5cccc6ccncc56)cc4)c3)c2)nc1)C(=O)O [BF044, (2S)-2-[[6-[3-[2-[2-[2-[2-[2-[2-[[4-(8-isoquinolyl)-3-[2-[4-(8-isoquinolyl)phenyl]ethoxy]phenyl]methoxy]ethoxy]ethoxy]ethoxy]ethoxy]ethoxy]ethylcarbamoyl]phenoxy]pyridine-3-carbonyl]amino]-5,5-dimethyl-hexanoic acid] | 10 to 250 nM
C[C@@H]1CN(c2ncc(-c3ccc4c(n3)N(Cc3cccnc3C#N)C(C)(C)C4=O)cn2)CCN1C(=O)COCCCCNc1cccc(Oc2ccc(C(=O)N[C@@H](CCC(C)(C)C)C(=O)O)cn2)c1 [BF046] | < 1 nM
C[C@@H]1CN(c2ncc(-c3ccc4c(n3)N(Cc3cccnc3C#N)C(C)(C)C4=O)cn2)CCN1C(=O)CNC(=O)COCCOCCCCCCNC(=O)c1cccc(Oc2ccc(C(=O)N[C@@H](CCC(C)(C)C)C(=O)O)cn2)c1 | 1 to 10 nM
CC(C)(C)CC[C@H](NC(=O)c1ccc(Oc2cccc(C(=O)NCCOCCOCCNc3ncc(-c4ccc5c(n4)N(Cc4cccnc4C#N)C(C)(C)C5=O)cn3)c2)nc1)C(=O)O [BF049, (2S)-2-[[6-[3-[2-[2-[2-[[5-[1-[(2-cyano-3-pyridyl)methyl]-2,2-dimethyl-3-oxo-pyrrolo[2,3-b]pyridin-6-yl]pyrimidin-2-yl]amino]ethoxy]ethoxy]ethylcarbamoyl]phenoxy]pyridine-3-carbonyl]amino]-5,5-dimethyl-hexanoic acid] | 1 to 10 nM
C[C@@H]1CN(c2ncc(-c3ccc4c(n3)N(Cc3cccnc3C#N)C(C)(C)C4=O)cn2)CCN1C(=O)CNC(=O)CCCCCCCCn1cc(CCc2cccc(Oc3ccc(C(=O)N[C@@H](CCC(C)(C)C)C(=O)O)cn3)c2)nn1 [BF108, (2S)-2-[[6-[3-[2-[1-[9-[[2-[(2R)-4-[5-[1-[(2-cyano-3-pyridyl)methyl]-2,2-dimethyl-3-oxo-pyrrolo[2,3-b]pyridin-6-yl]pyrimidin-2-yl]-2-methyl-piperazin-1-yl]-2-oxo-ethyl]amino]-9-oxo-nonyl]triazol-4-yl]ethyl]phenoxy]pyridine-3-carbonyl]amino]-5,5-dimethyl-hexanoic acid] | 1 to 10 nM
C[C@@H]1CN(c2ncc(-c3ccc4c(n3)N(Cc3cccnc3C#N)C(C)(C)C4=O)cn2)CCN1C(=O)COCCOCCOCCOCCNC(=O)c1cccc(Oc2ccc(C(=O)N[C@@H](CCC(C)(C)C)C(=O)O)cn2)c1 [BF031, (2S)-2-[[6-[3-[2-[2-[2-[2-[2-[(2R)-4-[5-[1-[(2-cyano-3-pyridyl)methyl]-2,2-dimethyl-3-oxo-pyrrolo[2,3-b]pyridin-6-yl]pyrimidin-2-yl]-2-methyl-piperazin-1-yl]-2-oxo-ethoxy]ethoxy]ethoxy]ethoxy]ethylcarbamoyl]phenoxy]pyridine-3-carbonyl]amino]-5,5-dimethyl-hexanoic acid] | 10 to 250 nM
CC(C)(C)CC[C@H](NC(=O)c1ccc(Oc2cccc(OCC(=O)NCCOCCOCCOCCOc3ncc(-c4ccc5c(n4)N(Cc4cccnc4C#N)C(C)(C)C5=O)cn3)c2)nc1)C(=O)O [BF139] | 1 to 10 nM
C[C@@H]1CN(c2ncc(-c3ccc4c(n3)N(Cc3cccnc3C#N)C(C)(C)C4=O)cn2)CCN1C(=O)COCCCCCCCCNC(=O)c1cccc(Oc2ccc(C(=O)N[C@@H](CCC(C)(C)C)C(=O)O)cn2)c1 [BF041] | < 1 nM
CC(C)(C)CC[C@H](NC(=O)c1ccc(Oc2cccc(C(=O)NCCOCCOCCOCCOc3ncc(-c4ccc5c(n4)N(Cc4cccnc4C#N)C(C)(C)C5=O)cn3)c2)nc1)C(=O)O [BF054] | 1 to 10 nM
CC(C)(C)CC[C@H](NC(=O)c1ccc(Oc2cccc(OCCOCCOCCOCCNc3ccc([N+](=O)[O-])cc3[N+](=O)[O-])c2)nc1)C(=O)O [BF007, (2S)-2-[[6-[3-[2-[2-[2-[2-(2,4-dinitroanilino)ethoxy]ethoxy]ethoxy]ethoxy]phenoxy]pyridine-3-carbonyl]amino]-5,5-dimethyl-hexanoic acid] | 1 to 10 nM
CC(C)(C)CC[C@H](NC(=O)c1ccc(Oc2cccc(C(=O)NCCOCCOCCOCCOCCOc3ncc(-c4ccc5c(n4)N(Cc4cccnc4C#N)C(C)(C)C5=O)cn3)c2)nc1)C(=O)O [BF052] | 1 to 10 nM
